The values below come from patent publication US6653455B1, “Crystallization of doxorubicin hydrochloride” (Mercian Corporation, priority 1998, dated 2003).

Data set [1] in a line: Hygroscopicity, cup method (weight change). As to conditions: weight-increasing rate, 25° C., 50 to 60% RH, 15 minutes; crystals dried at 40° C. under vacuum; hydrochloride. In kind it is physicochemical. Here is the method: Determined by the following cup method. To be specific, about 15 to 20 mg of the sample was put in a cylindrical cup having a diameter of 6 mm and a depth of 6 mm and left standing at a fixed temperature (25° C.) and relative humidity (50 to 60% RH) for 15 minutes to measure a weight change, whereby the hygroscopicity was evaluated.
In the following respective examples, a weight-increasing rate of 0.40% or more is shown by an evaluation criterion that the hygroscopicity is large (−); a weight-increasing rate of 0.20% or more and less than 0.40% is shown by an evaluation criterion that the hygroscopicity is ;intermediate (±); and a weight-increasing rate of less than 0.20% is shown by an evaluation criterion that the hygroscopicity is small: (+).

The nature of data set [2]: Average particle diameter, microscopic method (Heywood circle-corresponding diameter). The format is physicochemical. To be noted: 10 typical crystals on photograph, hydrochloride. The source says: The average particle diameter is shown by a diameter of a circle having the same area as an injected area of the particle, a so-called Heywood diameter (circle-corresponding diameter) according to a microscopic method (injected image). A small amount of the crystals was put on a slide glass, and 1 to 2 drops of a hydrophilic surfactant (sesquioleic acid sorbitan) were fallen thereon to disperse them. It was photographed by means of a polarization microscope (photographing lens: 3.3 magnifications, objective lens: 20 magnifications) equipped with a photographing device. Optional 10 pieces of the typical crystals were selected on the photograph to measure a long diameter and a short diameter thereof An (projected) area of the particle was shown by long diameter×short diameter, and the particle diameter was shown by a diameter of a circle having the same area as that obtained above.

Molecules are shown by their SMILES. Structures can show the parent of a compound that is named as a salt.

On to `COc1cccc2c1C(=O)c1c(O)c3c(c(O)c1C2=O)C[C@@](O)(C(=O)CO)C[C@@H]3O[C@H]1C[C@H](N)[C@H](O)[C@H](C)O1` [Example 43, doxorubicin hydrochloride], for which the Hygroscopicity entry in data set [1] was “+ (a weight-increasing rate of less than 0.20% is shown by an evaluation criterion that the hygroscopicity is small: (+))”.
For `COc1cccc2c1C(=O)c1c(O)c3c(c(O)c1C2=O)C[C@@](O)(C(=O)CO)C[C@@H]3O[C@H]1C[C@H](N)[C@H](O)[C@H](C)O1` [Example 21, doxorubicin hydrochloride], in data set [1], the Hygroscopicity entry was “+ (a weight-increasing rate of less than 0.20% is shown by an evaluation criterion that the hygroscopicity is small: (+))”. The same molecule had an Average particle diameter in data set [2] of 54 μm.
Take `COc1cccc2c1C(=O)c1c(O)c3c(c(O)c1C2=O)C[C@@](O)(C(=O)CO)C[C@@H]3O[C@H]1C[C@H](N)[C@H](O)[C@H](C)O1` [Example 47, doxorubicin hydrochloride]: in data set [1], the Hygroscopicity entry was “± (a weight-increasing rate of 0.20% or more and less than 0.40% is shown by an evaluation criterion that the hygroscopicity is ;intermediate (±))”. In data set [2], this molecule came in with an Average particle diameter of 60 μm.
Regarding `COc1cccc2c1C(=O)c1c(O)c3c(c(O)c1C2=O)C[C@@](O)(C(=O)CO)C[C@@H]3O[C@H]1C[C@H](N)[C@H](O)[C@H](C)O1` [Example 20, doxorubicin hydrochloride], the Hygroscopicity result in data set [1] was “+ (a weight-increasing rate of less than 0.20% is shown by an evaluation criterion that the hygroscopicity is small: (+))”. Also, the Average particle diameter in data set [2] is 7 μm.
As to `COc1cccc2c1C(=O)c1c(O)c3c(c(O)c1C2=O)C[C@@](O)(C(=O)CO)C[C@@H]3O[C@H]1C[C@H](N)[C@H](O)[C@H](C)O1` [Example 27, doxorubicin hydrochloride], in data set [1], the Hygroscopicity entry was “± (a weight-increasing rate of 0.20% or more and less than 0.40% is shown by an evaluation criterion that the hygroscopicity is ;intermediate (±))”.
Take `COc1cccc2c1C(=O)c1c(O)c3c(c(O)c1C2=O)C[C@@](O)(C(=O)CO)C[C@@H]3O[C@H]1C[C@H](N)[C@H](O)[C@H](C)O1` [Example 17, doxorubicin hydrochloride]: the Hygroscopicity entry in data set [1] is “− (a weight-increasing rate of 0.40% or more is shown by an evaluation criterion that the hygroscopicity is large (−))”.
`COc1cccc2c1C(=O)c1c(O)c3c(c(O)c1C2=O)C[C@@](O)(C(=O)CO)C[C@@H]3O[C@H]1C[C@H](N)[C@H](O)[C@H](C)O1` [Example 52, doxorubicin hydrochloride]: the Hygroscopicity result in data set [1] is “+ (a weight-increasing rate of less than 0.20% is shown by an evaluation criterion that the hygroscopicity is small: (+))”.
Turning to `COc1cccc2c1C(=O)c1c(O)c3c(c(O)c1C2=O)C[C@@](O)(C(=O)CO)C[C@@H]3O[C@H]1C[C@H](N)[C@H](O)[C@H](C)O1` [Example 37, doxorubicin hydrochloride], in data set [1], the Hygroscopicity entry is “+ (a weight-increasing rate of less than 0.20% is shown by an evaluation criterion that the hygroscopicity is small: (+))”.
Still for that read-out and setting: the result for `COc1cccc2c1C(=O)c1c(O)c3c(c(O)c1C2=O)C[C@@](O)(C(=O)CO)C[C@@H]3O[C@H]1C[C@H](N)[C@H](O)[C@H](C)O1` [Example 29, doxorubicin hydrochloride] reads “+ (a weight-increasing rate of less than 0.20% is shown by an evaluation criterion that the hygroscopicity is small: (+))”.
On the same count and under the same terms, the result for `COc1cccc2c1C(=O)c1c(O)c3c(c(O)c1C2=O)C[C@@](O)(C(=O)CO)C[C@@H]3O[C@H]1C[C@H](N)[C@H](O)[C@H](C)O1` [Example 15, doxorubicin hydrochloride] reads “− (a weight-increasing rate of 0.40% or more is shown by an evaluation criterion that the hygroscopicity is large (−))”; that for `COc1cccc2c1C(=O)c1c(O)c3c(c(O)c1C2=O)C[C@@](O)(C(=O)CO)C[C@@H]3O[C@H]1C[C@H](N)[C@H](O)[C@H](C)O1` [Example 8, doxorubicin hydrochloride], “− (a weight-increasing rate of 0.40% or more is shown by an evaluation criterion that the hygroscopicity is large (−))”; that for `COc1cccc2c1C(=O)c1c(O)c3c(c(O)c1C2=O)C[C@@](O)(C(=O)CO)C[C@@H]3O[C@H]1C[C@H](N)[C@H](O)[C@H](C)O1` [Example 39, doxorubicin hydrochloride], “+ (a weight-increasing rate of less than 0.20% is shown by an evaluation criterion that the hygroscopicity is small: (+))”.
On the same count and under the same terms, the result for `COc1cccc2c1C(=O)c1c(O)c3c(c(O)c1C2=O)C[C@@](O)(C(=O)CO)C[C@@H]3O[C@H]1C[C@H](N)[C@H](O)[C@H](C)O1` [Example 25, doxorubicin hydrochloride] reads “+ (a weight-increasing rate of less than 0.20% is shown by an evaluation criterion that the hygroscopicity is small: (+))”.
Turning to `COc1cccc2c1C(=O)c1c(O)c3c(c(O)c1C2=O)C[C@@](O)(C(=O)CO)C[C@@H]3O[C@H]1C[C@H](N)[C@H](O)[C@H](C)O1` [Example 14, doxorubicin hydrochloride], in data set [1], the Hygroscopicity entry is “± (a weight-increasing rate of 0.20% or more and less than 0.40% is shown by an evaluation criterion that the hygroscopicity is ;intermediate (±))”.
Take `COc1cccc2c1C(=O)c1c(O)c3c(c(O)c1C2=O)C[C@@](O)(C(=O)CO)C[C@@H]3O[C@H]1C[C@H](N)[C@H](O)[C@H](C)O1` [Example 41, doxorubicin hydrochloride]: the Hygroscopicity result in data set [1] is recorded as “+ (a weight-increasing rate of less than 0.20% is shown by an evaluation criterion that the hygroscopicity is small: (+))”.
For `COc1cccc2c1C(=O)c1c(O)c3c(c(O)c1C2=O)C[C@@](O)(C(=O)CO)C[C@@H]3O[C@H]1C[C@H](N)[C@H](O)[C@H](C)O1` [Example 3, doxorubicin hydrochloride], the Hygroscopicity entry in data set [1] is “− (a weight-increasing rate of 0.40% or more is shown by an evaluation criterion that the hygroscopicity is large (−))”.
Same read-out and setting: the result for `COc1cccc2c1C(=O)c1c(O)c3c(c(O)c1C2=O)C[C@@](O)(C(=O)CO)C[C@@H]3O[C@H]1C[C@H](N)[C@H](O)[C@H](C)O1` [Example 36, doxorubicin hydrochloride] reads “± (a weight-increasing rate of 0.20% or more and less than 0.40% is shown by an evaluation criterion that the hygroscopicity is ;intermediate (±))”; that for `COc1cccc2c1C(=O)c1c(O)c3c(c(O)c1C2=O)C[C@@](O)(C(=O)CO)C[C@@H]3O[C@H]1C[C@H](N)[C@H](O)[C@H](C)O1` [Example 53, doxorubicin hydrochloride], “+ (a weight-increasing rate of less than 0.20% is shown by an evaluation criterion that the hygroscopicity is small: (+))”; that for `COc1cccc2c1C(=O)c1c(O)c3c(c(O)c1C2=O)C[C@@](O)(C(=O)CO)C[C@@H]3O[C@H]1C[C@H](N)[C@H](O)[C@H](C)O1` [Example 54, doxorubicin hydrochloride], “+ (a weight-increasing rate of less than 0.20% is shown by an evaluation criterion that the hygroscopicity is small: (+))”.
Same read-out and setting: the result for `COc1cccc2c1C(=O)c1c(O)c3c(c(O)c1C2=O)C[C@@](O)(C(=O)CO)C[C@@H]3O[C@H]1C[C@H](N)[C@H](O)[C@H](C)O1` [Example 1, doxorubicin hydrochloride] reads “− (a weight-increasing rate of 0.40% or more is shown by an evaluation criterion that the hygroscopicity is large (−))”; that for `COc1cccc2c1C(=O)c1c(O)c3c(c(O)c1C2=O)C[C@@](O)(C(=O)CO)C[C@@H]3O[C@H]1C[C@H](N)[C@H](O)[C@H](C)O1` [Example 18, doxorubicin hydrochloride], “− (a weight-increasing rate of 0.40% or more is shown by an evaluation criterion that the hygroscopicity is large (−))”; that for `COc1cccc2c1C(=O)c1c(O)c3c(c(O)c1C2=O)C[C@@](O)(C(=O)CO)C[C@@H]3O[C@H]1C[C@H](N)[C@H](O)[C@H](C)O1` [Example 31, doxorubicin hydrochloride], “+ (a weight-increasing rate of less than 0.20% is shown by an evaluation criterion that the hygroscopicity is small: (+))”.
Still for that read-out and setting: then `COc1cccc2c1C(=O)c1c(O)c3c(c(O)c1C2=O)C[C@@](O)(C(=O)CO)C[C@@H]3O[C@H]1C[C@H](N)[C@H](O)[C@H](C)O1` [Example 50, doxorubicin hydrochloride], with “+ (a weight-increasing rate of less than 0.20% is shown by an evaluation criterion that the hygroscopicity is small: (+))”; and `COc1cccc2c1C(=O)c1c(O)c3c(c(O)c1C2=O)C[C@@](O)(C(=O)CO)C[C@@H]3O[C@H]1C[C@H](N)[C@H](O)[C@H](C)O1` [Example 26, doxorubicin hydrochloride], with “+ (a weight-increasing rate of less than 0.20% is shown by an evaluation criterion that the hygroscopicity is small: (+))”.
`COc1cccc2c1C(=O)c1c(O)c3c(c(O)c1C2=O)C[C@@](O)(C(=O)CO)C[C@@H]3O[C@H]1C[C@H](N)[C@H](O)[C@H](C)O1` [Example 9, doxorubicin hydrochloride]: in data set [1], the Hygroscopicity result is “− (a weight-increasing rate of 0.40% or more is shown by an evaluation criterion that the hygroscopicity is large (−))”.
